Measured values: patent publication US9452225B2, “GLP-1 prodrugs” (Novo Nordisk A/S, priority 2012, dated 2016)
Read-outs that look alike come from different tables or passages of the source. Numbered stars: 1 amine (or outer) side, 2 acyl side, 3 side chain; on linkers, the order of the positions; unused ones are H or OH. Side chains are listed from the residue outwards. Peptide text beside a SMILES is read from it. * marks the point of attachment. Decanoyl(10-(4-HOOC-PhO)) = O=C(O)c1ccc(OCCCCCCCCCC(=O)*)cc1; Lactoyl(3-(imidazol-4-yl)) = O=C([C@@H](O)Cc1c[nH]cn1)*; γGlu = O=C(O)[C@H](CCC(=O)[*:2])N[*:1]; AEEA = NCCOCCOCC(=O)O

What was measured:
human GLP-1 receptor = target: T1, human GLP-1 receptor (Homo sapiens, UniProt P43220); experiment: In vitro potency, AlphaScreen cAMP assay on membranes; assay type: biochemical; conditions: cAMP formation, membranes of BHK467-12A cells
T1 construct: expressed in transfected cells; host or cells: BHK cells, clone FCW467-12A (parent line BHKTS13), membranes
Protocol: The purpose of this example is to test the activity, or potency, in vitro of, for example, the GLP-1 parent drugs of the prodrugs of the invention.
Purified plasma membranes from a stable transfected cell line, BHK467-12A (tk-ts13), expressing the human GLP-1 receptor were stimulated with the GLP-1 drug in question, and the potency of cAMP production was measured using the AlphaScreen™ cAMP Assay Kit from Perkin Elmer Life Sciences. The basic principle of The AlphaScreen Assay is a competition between endogenous cAMP and exogenously added biotin-cAMP. The capture of cAMP is achieved by using a specific antibody conjugated to acceptor beads.
A stable transfected cell line and a high expressing clone were selected for screening. The cells were grown at 5% CO2 in DMEM, 10% FCS, 1% Pen/Strep (Penicillin/Streptomycin) and preferably 0.5 (alternatively 1.0 mg/ml) of the selection marker G418.
Cells at approximate 80% confluence were washed twice with PBS and harvested with Versene (aqueous solution of the tetrasodium salt of ethylenediaminetetraacetic acid), centrifuged 5 min at 1000 rpm and the supernatant removed. The additional steps were all made on ice. The cell pellet was homogenised by the Ultrathurax for 20-30 s in 10 ml of Buffer 1 (20 mM Na-HEPES, 10 mM EDTA, pH=7.4), centrifuged 15 min at 20,000 rpm and the pellet resuspended in 10 ml of Buffer 2 (20 mM Na-HEPES, 0.1 mM EDTA, pH=7.4). The suspension was homogenised for 20-30 s and centrifuged 15 min at 20,000 rpm. Suspension in Buffer 2, homogenisation and centrifugation was repeated once and the membranes were resuspended in Buffer 2. The protein concentration was determined and the membranes stored at −80° C. until use.
The assay was performed in flat-bottom 96-well plates (Costar cat. no: 3693). The final volume per well was 50 μl.
AlphaScreen cAMP Assay Kit from Perkin Elmer Life Sciences (cat. No: 6760625M); containing Anti-cAMP Acceptor beads (10 U/μl), Streptavidin Donor beads (10 U/μl) and Biotinylated-cAMP (133 U/μl). […]

[1] = target: T2, Dipeptidyl peptidase-4 (DPP-IV) (Homo sapiens, UniProt P27487); experiment: Resistance to DPP-IV degradation; assay type: in vitro ADME; conditions: for half-life: recombinant dipeptidyl peptidase-4 (DPP-IV), pH 7.4, incubation with DPP-IV, 37° C.; for In (concentration) of parent GLP-1 peptide drug: DPP-IV incubation 37° C.
T2 construct: purchased R&D Systems 1180-SE
Protocol: The purpose of this experiment is to determine the degradation by Dipeptidyl peptidase-4 (DPP-IV) of the parent drugs of the prodrugs of the invention.
The stability of the parent GLP-1 drug of Example B2.1 was tested as described below.
HEPES Buffer (50 mM HEPES Buffer with 0.005% Tween20, pH 7.4)
10 ml 1 M HEPES+100 μl 10% Tween20 adjusted to pH 7.4 and diluted with MilliQ water ad 200 mL
1.0 mM in HEPES buffer 0.1% BSA (Sigma cat. no. A9418)
1.0 mM in hepes buffer pH 7.4
DPP-IV was Recombinant Dipeptidyl Peptidase, R&D Systems, cat no. 1180-SE
50 μl of DPP-IV (0.2 mg/mL), 25 mM MES, 0.7 M NaCl, pH 5.0
Add 200 μl 25 mM TRIS pH 8.0 to Stock vial (DPP-IV concentration 40 μg/mL). Just before use: 210 μl (40 μg/ml) is added 210 μl 50 mM HEPES (DPP-IV concentration 20 μg/mL)
Minimum 30 min, 37° C. with 600 μl 0.1% OVAlbumin. Then left overnight at 4° C. and washed times with 50 mM HEPES.
Minimum 150 min with HEPES buffer at 37° C.
The reactions were terminated by moving 25 μl of the sample into 150 μl cooled 1% TFA in EtOH. Samples were collected in a v-shaped 96-well plate (polypropylene, Costar 3957), (Cat no. cci-3957)). Samples were sealed and kept on ice until analyses.
Samples were diluted 5 times in 50% acetonitrile (1% formic acid) (20 μL+80 μL) and analysed with UPLC-MS.
The amounts of parent GLP-1 drug and DPP-IV cleaved drug were measured from the total ion counts and T½ was determined from a linear fit to the curve of ln (% parent GLP-1 drug) (Y) as a function of time (t), as follows: Y(t)=÷αt+k Math 3 T½=ln 2/α Math 4 T½ (÷BSA): 3466 min T½ (+0.001% BSA): 2311 min

T2 sequence (P27487 29-766 limits assumed): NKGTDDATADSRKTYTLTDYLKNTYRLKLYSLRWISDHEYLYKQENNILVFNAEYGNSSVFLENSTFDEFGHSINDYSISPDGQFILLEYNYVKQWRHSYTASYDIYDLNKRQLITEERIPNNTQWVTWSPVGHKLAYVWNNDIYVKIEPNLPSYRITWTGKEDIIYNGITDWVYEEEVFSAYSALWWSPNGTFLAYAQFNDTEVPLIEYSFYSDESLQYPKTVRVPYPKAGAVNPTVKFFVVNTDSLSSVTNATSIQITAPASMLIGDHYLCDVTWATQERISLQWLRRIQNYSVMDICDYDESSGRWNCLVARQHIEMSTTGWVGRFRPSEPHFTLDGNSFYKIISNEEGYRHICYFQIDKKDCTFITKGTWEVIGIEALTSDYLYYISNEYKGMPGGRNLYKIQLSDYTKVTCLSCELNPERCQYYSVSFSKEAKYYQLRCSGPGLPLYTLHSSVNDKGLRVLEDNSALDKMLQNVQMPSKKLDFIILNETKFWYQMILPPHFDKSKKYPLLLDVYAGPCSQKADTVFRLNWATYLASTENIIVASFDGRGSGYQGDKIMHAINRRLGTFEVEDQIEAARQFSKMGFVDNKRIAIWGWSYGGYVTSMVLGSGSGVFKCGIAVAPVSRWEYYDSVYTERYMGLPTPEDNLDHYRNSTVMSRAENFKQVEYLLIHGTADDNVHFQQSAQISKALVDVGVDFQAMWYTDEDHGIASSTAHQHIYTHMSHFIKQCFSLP
T1 sequence (P43220 24-463): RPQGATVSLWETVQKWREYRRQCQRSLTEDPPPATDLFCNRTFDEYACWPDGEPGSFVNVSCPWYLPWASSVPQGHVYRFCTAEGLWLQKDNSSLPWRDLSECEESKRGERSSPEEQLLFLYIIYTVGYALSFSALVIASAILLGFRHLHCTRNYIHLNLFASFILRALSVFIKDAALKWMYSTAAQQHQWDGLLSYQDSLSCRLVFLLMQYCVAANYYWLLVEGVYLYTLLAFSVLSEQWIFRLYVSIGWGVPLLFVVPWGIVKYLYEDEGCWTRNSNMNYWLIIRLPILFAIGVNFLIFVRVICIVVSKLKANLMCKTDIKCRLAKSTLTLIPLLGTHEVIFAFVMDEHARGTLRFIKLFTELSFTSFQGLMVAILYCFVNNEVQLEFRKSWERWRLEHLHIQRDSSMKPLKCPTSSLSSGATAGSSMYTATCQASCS

Row | SMILES | EC50 (human GLP-1 receptor) | half-life ([1]; +0.001% BSA, read-out: T½ (+0.001% BSA)) | half-life ([1]; without BSA, read-out: T½ (÷BSA)) | In (concentration) of parent GLP-1 peptide drug ([1]; with BSA, time 1.0 minutes) | In (concentration) of parent GLP-1 peptide drug ([1]; with BSA, time 32 minutes) | In (concentration) of parent GLP-1 peptide drug ([1]; with BSA, time 60 minutes) | In (concentration) of parent GLP-1 peptide drug ([1]; with BSA, time 120 minutes) | In (concentration) of parent GLP-1 peptide drug ([1]; with BSA, time 183 minutes) | In (concentration) of parent GLP-1 peptide drug ([1]; with BSA, time 1440 minutes) | In (concentration) of parent GLP-1 peptide drug ([1]; without BSA, time 1.0 minutes) | In (concentration) of parent GLP-1 peptide drug ([1]; without BSA, time 32 minutes) | In (concentration) of parent GLP-1 peptide drug ([1]; without BSA, time 60 minutes) | In (concentration) of parent GLP-1 peptide drug ([1]; without BSA, time 120 minutes) | In (concentration) of parent GLP-1 peptide drug ([1]; without BSA, time 183 minutes) | In (concentration) of parent GLP-1 peptide drug ([1]; without BSA, time 1440 minutes)
1 | CC[C@H](C)[C@H](NC(=O)[C@H](Cc1ccccc1)NC(=O)[C@H](CCC(=O)O)NC(=O)[C@H](CCCNC(=N)N)NC(=O)[C@@H](NC(=O)[C@H](C)NC(=O)[C@H](CCC(N)=O)NC(=O)[C@H](CCC(=O)O)NC(=O)[C@H](CCC(=O)O)NC(=O)[C@H](CC(C)C)NC(=O)[C@H](Cc1ccc(O)cc1)NC(=O)[C@H](CCCCNC(=O)COCCOCCNC(=O)COCCOCCNC(=O)CC[C@H](NC(=O)CCCCCCCCCOc1ccc(C(=O)O)cc1)C(=O)O)NC(=O)[C@H](CO)NC(=O)[C@@H](NC(=O)[C@H](CC(=O)O)NC(=O)[C@H](CO)NC(=O)[C@@H](NC(=O)[C@H](Cc1ccccc1)NC(=O)[C@@H](NC(=O)CNC(=O)[C@H](CCC(=O)O)NC(=O)[C@H](C)NC(=O)[C@@H](O)Cc1c[nH]cn1)[C@@H](C)O)[C@@H](C)O)C(C)C)C(C)C)C(=O)N[C@@H](C)C(=O)N[C@@H](CCCCNC(=O)COCCOCCNC(=O)COCCOCCNC(=O)CC[C@H](NC(=O)CCCCCCCCCOc1ccc(C(=O)O)cc1)C(=O)O)C(=O)N[C@@H](CC(C)C)C(=O)N[C@H](C(=O)N[C@@H](CCCNC(=N)N)C(=O)NCC(=O)N[C@@H](CCCNC(=N)N)C(=O)NCC(=O)O)C(C)C [Example B2.1] ({Lactoyl(3-(imidazol-4-yl))}-AEGTFTSDVSK([AEEA-AEEA-γGlu-Decanoyl(10-(4-HOOC-PhO))])YLEEQAVREFIAK([AEEA-AEEA-γGlu-Decanoyl(10-(4-HOOC-PhO))])LVRGRG-OH) | 100 pM | 38.5 h | 57.8 h | 4.61 | 4.61 | 4.58 | 4.40 | 4.58 | 4.47 | 4.61 | 4.59 | 4.63 | 4.50 | 4.64 | 4.45
2 | CC[C@H](C)[C@H](NC(=O)[C@H](Cc1ccccc1)NC(=O)[C@H](CCC(=O)O)NC(=O)[C@H](CCCCNC(=O)COCCOCCNC(=O)COCCOCCNC(=O)CC[C@H](NC(=O)CCCCCCCCCOc1ccc(C(=O)O)cc1)C(=O)O)NC(=O)[C@H](C)NC(=O)[C@H](C)NC(=O)[C@H](CCC(N)=O)NC(=O)[C@H](CCC(=O)O)NC(=O)[C@H](CCC(=O)O)NC(=O)[C@H](CC(C)C)NC(=O)[C@H](Cc1ccc(O)cc1)NC(=O)[C@H](CCCCNC(=O)COCCOCCNC(=O)COCCOCCNC(=O)CC[C@H](NC(=O)CCCCCCCCCOc1ccc(C(=O)O)cc1)C(=O)O)NC(=O)[C@H](CO)NC(=O)[C@@H](NC(=O)[C@H](CC(=O)O)NC(=O)[C@H](CO)NC(=O)[C@@H](NC(=O)[C@H](Cc1ccccc1)NC(=O)[C@@H](NC(=O)CNC(=O)[C@H](CCC(=O)O)NC(=O)[C@H](C)NC(=O)[C@@H](O)Cc1c[nH]cn1)[C@@H](C)O)[C@@H](C)O)C(C)C)C(=O)N[C@@H](C)C(=O)N[C@@H](Cc1c[nH]c2ccccc12)C(=O)N[C@@H](CC(C)C)C(=O)N[C@H](C(=O)N[C@@H](CCC(N)=O)C(=O)NCC(=O)N[C@@H](CCCNC(=N)N)C(=O)NCC(=O)O)C(C)C [Example B2.3] ({Lactoyl(3-(imidazol-4-yl))}-AEGTFTSDVSK([AEEA-AEEA-γGlu-Decanoyl(10-(4-HOOC-PhO))])YLEEQAAK([AEEA-AEEA-γGlu-Decanoyl(10-(4-HOOC-PhO))])EFIAWLVQGRG-OH; C-terminus assumed) | 1300 pM | – | – | – | – | – | – | – | – | – | – | – | – | – | –
